{"source": "ChEMBL document CHEMBL1144539", "about": "“Fluoro-ketopyranosyl nucleosides: synthesis and biological evaluation of 3-fluoro-2-keto-beta-D-glucopyranosyl derivatives of N4-benzoyl cytosine” (Bioorg Med Chem, 2007)", "key": {"[1]": {"tested_on": "Caco-2", "assay": "Cytotoxicity against human Caco-2 cells after 72 hrs", "format": "cell-based", "conditions": "Caco-2, 72 h"}, "[2]": {"assay": "Antiviral activity against bovine rotavirus RF in MA 104 cells assessed as neutralization of virus in solution before cell attachment", "format": "functional, cell-based, Bovine rotavirus strain RF", "conditions": "Rotavirus A"}, "[3]": {"assay": "Stimulation of proliferation of monkey MA104 cells at 30 ng/mL after 72 hrs relative to control", "format": "functional, Macaca mulatta"}, "[4]": {"assay": "Inhibition of bovine rotavirus RF infectivity following virus attachment to MA 104 cells", "format": "functional, cell-based, Bovine rotavirus strain RF", "conditions": "Rotavirus A"}, "[5]": {"tested_on": "Caco-2", "assay": "Growth inhibition of human Caco-2 cells after 72 hrs", "format": "functional, cell-based", "conditions": "Caco-2, 72 h"}, "[6]": {"assay": "Antiviral activity against bovine rotavirus RF in MA104 cells", "format": "functional, cell-based, Bovine rotavirus strain RF", "conditions": "Rotavirus A"}}}
{"smiles": "O=C(Nc1ccn(C[C@@H]2O[C@H](CO)[C@@H](O)[C@H](F)C2=O)c(=O)n1)c1ccccc1", "values": [{"measurement": "IC50", "setting": "[1]", "result": 1500, "unit": "µg/mL"}, {"measurement": "IC50", "setting": "[2]", "result": 70, "unit": "µg/mL"}, {"measurement": "Activity", "setting": "[3]", "result": 40, "unit": "%"}, {"measurement": "IC50", "setting": "[4]", "result": 70, "unit": "µg/mL"}, {"measurement": "IC50", "setting": "[5]", "result": 2500, "unit": "µg/mL"}]}
{"smiles": "Cc1cn([C@H]2C[C@H](N=[N+]=[N-])[C@@H](CO)O2)c(=O)[nH]c1=O", "note": "[ZIDOVUDINE]", "values": [{"measurement": "IC50", "setting": "[1]", "result": 15, "unit": "µg/mL"}, {"measurement": "IC50", "setting": "[2]", "result": 60, "unit": "µg/mL"}, {"measurement": "IC50", "setting": "[4]", "result": 15, "unit": "µg/mL"}, {"measurement": "IC50", "setting": "[6]", "result": 4, "unit": "µg/mL"}, {"measurement": "IC50", "setting": "[5]", "result": 15, "unit": "µg/mL"}]}
